Test results: US20150352099A1, “Compositions and Methods of Reducing Sedation” (Mentinova Inc., priority 2014, published 2015)
Counter-ions that a name gives are not always drawn.

How the values were obtained:
[1] = test system: Parkinsonian non-human primates; experiment: Parkinsonian motor disability scores (MDS) versus sedation scores; assay type: in vivo; conditions: nalbuphine 0.016 mg/kg-0.50 mg/kg in primates; the FIGURE
Description: The foregoing summary, as well as the following detailed description of the invention, will be better understood when read in conjunction with the appended drawings. The FIGURE is a graph showing total sedation scores as a function of motor disability in non-human primates treated with nalbuphine HCl monotherapy.
In other words, severity of dopamine deficiency is a predictor of the sedation severity for the same dose of nalbuphine given to different animals.
Parkinsonian non-human primates (n=6) were injected (s.c.) with Nalbuphine HCl (NB, dissolved in saline) and evaluated for changes in parkinsonian motor disability (MDS) and drug effects on the nervous system (DENS). Evaluations were performed immediately before injection (baseline), at 30 minutes post-injection and again every 20 minutes thereafter for 110 minutes or until effects were no longer observable. […]
Animals (n=6) were injected (s.c.) with NB immediately prior to receiving L-dopa (LD; levodopa methyl ester plus 25% benserazide, dissolved in saline and given s.c.). The LD dose was determined individually for each animal based on ‘on’ response and consistency of dyskinesia. Animals were evaluated for changes in parkinsonian motor disability scores (MDS), drug effects on the nervous system (Sedation) and severity of dyskinesias. […]

[2] = Pharmacokinetic parameters (Cmax, AUC, Tmax) of opioid given alone or with dopaminergic agent; conditions: sc, 0.25 mg/kg; for AUC / Cmax: plasma; for Tmax: serum
[3] = test system: Parkinsonian non-human primates; experiment: Drug effects on the nervous system (DENS) sedation scores, nalbuphine monotherapy; assay type: in vivo; conditions: for Sedation Items: Appetite / Sedation Items: Attentiveness / Sedation Items: Eye Movement / Sedation Items: Mouth (excessive salivation, drooling) / Sedation Items: Reactivity: DENS score, total of all intervals; for Sedation Items: Total: total sedation score
Procedure: Parkinsonian non-human primates (n=6) were injected (s.c.) with Nalbuphine HCl (NB, dissolved in saline) and evaluated for changes in parkinsonian motor disability (MDS) and drug effects on the nervous system (DENS). Evaluations were performed immediately before injection (baseline), at 30 minutes post-injection and again every 20 minutes thereafter for 110 minutes or until effects were no longer observable. Five NB doses (0.0, 0.016, 0.05, 0.16, 0.50 mg/kg) were tested in each animal with each dose tested 3 times in all animals.
Itemized Sedation scores (see Uthayathas et al., “Assessment of adverse effects of neurotropic drugs in monkeys with the ‘drug effects on the nervous system’ (DENS) scale,” J Neurosci Methods. 2013 Apr. 30; 215(1):97-102, for complete description of the DENS scale, incorporated by reference herein in its entirety). The items in this scale are given in the table with the exception of “Involuntary Movements”, “Bowel” and “Bladder”, which were omitted because they were not scored with this scale. Scores are total values from adding all intervals. Higher scores reflect increased sedative effects. […] Values represent the means±SEM of all animals (n=6).

[4] = NB 0.016 mg/kg s.c., mean ± SEM n=6
[5] = NB 0.05 mg/kg s.c., mean ± SEM n=6
[6] = NB 0.16 mg/kg s.c., mean ± SEM n=6
[7] = NB 0.5 mg/kg s.c., mean ± SEM n=6

With `Oc1ccc2c3c1O[C@H]1[C@@H](O)CC[C@@]4(O)[C@@H](C2)N(CC2CCC2)CC[C@]314` [NB, Nalbuphine HCl] the “parkinsonian motor disability scores (MDS) versus sedation scores” value [1] was “correlate with sedation scores”, the AUC ([2]; average AUC of opioid, nalbuphine 0.25 mg/kg subcutaneously with L-DOPA 25 mg/kg subcutaneously) was ~89 ng·h/mL and the AUC ([2]; average AUC, nalbuphine 0.25 mg/kg subcutaneously, alone) was ~96 ng·h/mL. The Cmax ([2]; average Cmax of opioid, nalbuphine 0.25 mg/kg subcutaneously with L-DOPA 25 mg/kg subcutaneously) was ~55 ng/mL, the Cmax ([2]; average Cmax, nalbuphine 0.25 mg/kg subcutaneously, alone) was ~49 ng/mL and the Tmax ([2]; average Tmax of opioid, nalbuphine 0.25 mg/kg subcutaneously with L-DOPA 25 mg/kg subcutaneously) was ~32 min. For the same compound, the Tmax ([2]; average Tmax, nalbuphine 0.25 mg/kg subcutaneously, alone) was ~37 min, the “Sedation Items: Appetite” value [3, 4] was 0.13 ± 0.13 and the “Sedation Items: Attentiveness” value [3, 4] was 2.00 ± 0.73. The “Sedation Items: Eye Movement” value [3, 4] was 0.17 ± 0.17, the “Sedation Items: Mouth (excessive salivation, drooling)” value (from here on “Sedation Items: Mouth”) [3, 4] was 0.13 ± 0.09 and the “Sedation Items: Reactivity” value [3, 4] was 0.67 ± 0.36. The “Sedation Items: Total” value ([3]; NB 0.016 mg/kg s.c.) was 3.08, the “Sedation Items: Appetite” value [3, 5] was 0.56 ± 0.26 and the “Sedation Items: Attentiveness” value [3, 5] was 2.75 ± 1.07. The “Sedation Items: Eye Movement” value [3, 5] was 0.54 ± 0.25, the “Sedation Items: Mouth” value [3, 5] was 0.17 ± 0.11 and the “Sedation Items: Reactivity” value [3, 5] was 1.58 ± 0.85. The “Sedation Items: Total” value ([3]; NB 0.05 mg/kg s.c.) was 5.61, the “Sedation Items: Mouth” value ([3]; NB 0.16 mg/kg s.c., mean n=6) was 0.00 and the “Sedation Items: Appetite” value [3, 6] was 1.48 ± 1.03. The “Sedation Items: Attentiveness” value [3, 6] was 3.17 ± 1.51, the “Sedation Items: Eye Movement” value [3, 6] was 2.44 ± 0.94 and the “Sedation Items: Reactivity” value [3, 6] was 4.1 ± 1.60. The “Sedation Items: Total” value ([3]; NB 0.16 mg/kg s.c.) was 11.19, the “Sedation Items: Appetite” value [3, 7] was 4.79 ± 0.78 and the “Sedation Items: Attentiveness” value [3, 7] was 5.17 ± 1.34. The “Sedation Items: Eye Movement” value [3, 7] was 3.29 ± 1.10, the “Sedation Items: Mouth” value [3, 7] was 1.17 ± 1.07 and the “Sedation Items: Reactivity” value [3, 7] was 6.65 ± 2.15. The “Sedation Items: Total” value ([3]; NB 0.5 mg/kg s.c.) was 21.06.
